From patent US20090124636A1, “CHEMICAL COMPOUNDS” (priority 2006, published 2009)

System: HIV-1 fusion
Assay: cells
Assay type: cell-based
Details: HIV cell fusion assay; HeLa P4 (CCR5/CD4) and CHO-Tat10 (gp160 JRFL) cells; read-out: IC50
Protocol: The gp160 induced cell-cell fusion assay uses a HeLa P4 cell line and a CHO-Tat10 cell line.
The HeLa P4 cell line expresses CCR5 and CD4 and has been transfected with HIV-1 LTR-β-Galactosidase. The media for this cell line is Dulbecco modified eagle's medium (D-MEM) (without L-glutamine) containing 10% foetal calf serum (FCS), 2 mM L-glutamine, penicillin/streptomycin (Pen/Strep; 100 U/mL penicillin+[…] streptomycin), and 1 μg/ml puromycin.
The CHO cell line is a Tat (transcriptional trans activator)-expressing clone from a CHO JRR17.1 cell line that has been transfected with pTat puro plasmid. The media for this cell line is rich medium for mammalian cell culture originally developed at Roswell Park Memorial Institute RPMI1640 (without L-glutamine) containing 10% FCS, 2 mM L-glutamine, 0.5 mg/ml Hygromycin B and 12 μg/ml puromycin. The CHO JRR17.1 line expresses gp160 (JRFL) and is a clone that has been selected for its ability to fuse with a CCR5/CD4 expressing cell line.
Upon cell fusion, Tat present in the CHO cell is able to transactivate the HIV-1 long terminal repeat (LTR) present in the HeLa cell leading to the expression of the β-Galactosidase enzyme. This expression is then measured using a Fluor Ace™ β-Galactosidase reporter assay kit (Bio-Rad cat no. 170-3150). This kit is a quantitative fluorescent assay that determines the level of expression of β-galactosidase using 4-methylumbelliferyl-galactopyranoside (MUG) as substrate. β-Galactosidase hydrolyses the fluorogenic substrate resulting in release of the fluorescent molecule 4-methylumbelliferone (4 MU). Fluorescence of 4-methylumbelliferone is then measured on a fluorometer using an excitation wavelength of 360 nm and emission wavelength of 460 nm.

First: Cc1cccc(C)c1C(=O)N1CCC(N2CC[C@@H](N(Cc3ccccc3F)C(=O)C3CC3)C2)CC1 [Example 3]
Second: CC(=O)N(Cc1ccccc1F)[C@@H]1CCN(C2CCN(C(=O)c3c(C)cccc3C)CC2)C1 [Example 14]
The IC50 of the first is 65-fold lower: 0.2 nM for the first, 13 nM for the second. The first is the more potent here.

Compared with `COCC(=O)N(Cc1ccccc1)[C@@H]1CCN(C2CCN(C(=O)c3c(C)cccc3C)CC2)C1` [Example 4], `COCCC(=O)N(Cc1ccccc1)[C@@H]1CCN(C2CCN(C(=O)c3c(C)cccc3C)CC2)C1` [Example 13] is 21-fold higher in IC50: 0.23 nM for the first, 4.83 nM for the second. The first is the more potent here.

Going from `Cc1cccc(C)c1C(=O)N1CCC(N2CC[C@@H](N(Cc3ccccc3)C(=O)C3CCC3)C2)CC1` [Example 5] to `Cc1cccc(C)c1C(=O)N1CCC(N2CC[C@@H](N(Cc3ccccc3)C(=O)C3CC3)C2)CC1` [Example 10], the IC50 rises from 0.27 nM to 1.99 nM (7.4-fold).

Going from `Cc1cccc(C)c1C(=O)N1CCC(N2CC[C@@H](N(Cc3ccccc3)C(=O)CC(F)(F)F)C2)CC1` [Example 6] to `CC(=O)N(Cc1ccccc1)[C@@H]1CCN(C2CCN(C(=O)c3c(C)cccc3C)CC2)C1` [Example 11], the IC50 rises from 0.34 nM to 3.05 nM (9-fold). The first is the more potent here.

Going from `Cc1cccc(C)c1C(=O)N1CCC(N2CC[C@@H](N(Cc3ccccc3)C(=O)C(C)C)C2)CC1` [Example 8] to `Cc1ccnc(C)c1C(=O)N1CCC(N2CC[C@@H](N(Cc3ccccc3)C(=O)C(C)C)C2)CC1` [Example 30], the IC50 rises from 0.63 nM to 18.9 nM (30-fold). The first is the more potent here.

First: Cc1cccc(C)c1C(=O)N1CCC(N2CC[C@@H](N(Cc3cccc(F)c3)C(=O)C3CC3)C2)CC1 [Example 9]
Second: Cc1cccc(C)c1C(=O)N1CCC(N2CC[C@@H](N(Cc3ccc(F)cc3)C(=O)C3CC3)C2)CC1 [Example 15]
The IC50 of the first is 43-fold lower: 0.8 nM for the first, 34.1 nM for the second.

Going from `Cc1cccc(C)c1C(=O)N1CCC(N2CC[C@@H](N(Cc3ccccc3)C(=O)c3ccccc3)C2)CC1` [Example 12] to `Cc1onc(-c2ccccc2)c1C(=O)N1CCC(N2CC[C@@H](N(Cc3ccccc3)C(=O)C3CC3)C2)CC1` [Example 41], the IC50 falls from 4.06 nM to 0.41 nM (9.9-fold).

Going from `Cc1cccc(C)c1C(=O)N1CCC(N2CC[C@@H](N(Cc3ccccn3)C(=O)C3CC3)C2)CC1` [Example 16] to `Cc1ccnc(C)c1C(=O)N1CCC(N2CC[C@@H](N(Cc3ccccc3)C(=O)C3CC3)C2)CC1` [Example 21], the IC50 falls from 237 nM to 0.82 nM (290-fold).

Going from `Cc1ccccc1C(=O)N1CCC(N2CC[C@@H](N(Cc3ccccc3)C(=O)C3CC3)C2)CC1` [Example 17] to `Cc1ccc(C(=O)N2CCC(N3CC[C@@H](N(Cc4ccccc4)C(=O)C4CC4)C3)CC2)c(C)c1` [Example 20], the IC50 rises from 40.8 nM to 221 nM (5.4-fold). The first is the more potent here.

First: Cc1ccnc(C)c1C(=O)N1CCC(N2CC[C@@H](N(Cc3ccccc3)C(=O)C3CC(F)(F)C3)C2)CC1 [Example 22]
Second: Cc1ccnc(C)c1C(=O)N1CCC(N2CC[C@@H](N(Cc3ccccc3F)C(=O)C3CC(F)(F)C3)C2)CC1 [Example 28]
The IC50 of the first is 10-fold lower: 1.21 nM for the first, 12.4 nM for the second. The first is the more potent here.

First: COCC(=O)N(Cc1cc(F)ccc1F)[C@@H]1CCN(C2CCN(C(=O)c3c(C)ccnc3C)CC2)C1 [Example 23]
Second: COCC(=O)N(Cc1cccc(F)c1F)[C@@H]1CCN(C2CCN(C(=O)c3c(C)ccnc3C)CC2)C1 [Example 26]
The IC50 of the first is 4.6-fold lower: 1.42 nM for the first, 6.51 nM for the second.

Compared with `COCC(=O)N(Cc1ccccc1F)[C@@H]1CCN(C2CCN(C(=O)c3c(C)ccnc3C)CC2)C1` [Example 24], `Cc1ccnc(C)c1C(=O)N1CCC(N2CC[C@@H](N(Cc3ccccc3F)C(=O)C(C)C)C2)CC1` [Example 27] is 14-fold lower in IC50: 119 nM for the first, 8.8 nM for the second.

Going from `COCC(=O)N(Cc1cccc(F)c1)[C@@H]1CCN(C2CCN(C(=O)c3c(C)ccnc3C)CC2)C1` [Example 25] to `Cc1ccnc(C)c1C(=O)N1CCC(N2CC[C@@H](N(Cc3cccc(F)c3)C(=O)C(C)C)C2)CC1` [Example 33], the IC50 rises from 5.04 nM to 42.2 nM (8.4-fold). The first is the more potent here.

`CC(=O)N(Cc1ccccc1)[C@@H]1CCN(C2CCN(C(=O)c3c(C)ccnc3C)CC2)C1` [Example 29] and `Cc1ncnc(C)c1C(=O)N1CCC(N2CC[C@@H](N(Cc3ccccc3)C(=O)C3CC3)C2)CC1` [Example 35] are within 1.5-fold of each other in IC50: 14 nM for the first, 9.9 nM for the second.

First: Cc1ccnc(C)c1C(=O)N1CCC(N2CC[C@@H](N(Cc3cccc(F)c3)C(=O)C3CC(F)(F)C3)C2)CC1 [Example 32]
Second: Cc1ncnc(C)c1C(=O)N1CCC(N2CC[C@@H](N(Cc3cccc(F)c3)C(=O)C3CC(F)(F)C3)C2)CC1 [Example 39]
The IC50 of the first is 6.5-fold lower: 34.7 nM for the first, 227 nM for the second. The first is the more potent here.

Going from `Cc1ncnc(C)c1C(=O)N1CCC(N2CC[C@@H](N(Cc3ccccc3)C(=O)C3CC(F)(F)C3)C2)CC1` [Example 34] to `Cc1ncnc(C)c1C(=O)N1CCC(N2CC[C@@H](N(Cc3ccccc3F)C(=O)C3CC(F)(F)C3)C2)CC1` [Example 37], the IC50 rises from 8.51 nM to 62.6 nM (7.4-fold).

Compared with `Cc1ncnc(C)c1C(=O)N1CCC(N2CC[C@@H](N(Cc3ccccc3)C(=O)OC(C)C)C2)CC1` [Example 36], `CCOC(=O)N(Cc1ccccc1)[C@@H]1CCN(C2CCN(C(=O)c3c(C)ncnc3C)CC2)C1` [Example 38] is 2.6-fold higher in IC50: 52 nM for the first, 135 nM for the second. The first is the more potent here.

`CCOc1ccccc1C(=O)N1CCC(N2CC[C@@H](N(Cc3ccccc3)C(=O)C3CCC3)C2)CC1` [Example 40] and `COc1cc(Cl)ccc1C(=O)N1CCC(N2CC[C@@H](N(Cc3ccccc3)C(=O)C3CC3)C2)CC1` [Example 53] are within 1.5-fold of each other in IC50: 120 nM for the first, 104 nM for the second.

First: Cc1onc(C(C)C)c1C(=O)N1CCC(N2CC[C@@H](N(Cc3ccccc3)C(=O)C3CC3)C2)CC1 [Example 42]
Second: Cc1cc[n+]([O-])c(C)c1C(=O)N1CCC(N2CC[C@@H](N(Cc3ccccc3)C(=O)C3CC3)C2)CC1 [Example 54]
The IC50 of the first is 1.9-fold higher: 66.3 nM for the first, 34.3 nM for the second.

Compared with `CCc1cnn(C)c1C(=O)N1CCC(N2CC[C@@H](N(Cc3ccccc3)C(=O)C3CC3)C2)CC1` [Example 43], `O=C(c1c(F)cccc1Cl)N1CCC(N2CC[C@@H](N(Cc3ccccc3)C(=O)C3CC3)C2)CC1` [Example 49] is 2.1-fold lower in IC50: 59.8 nM for the first, 28.5 nM for the second.

First: COCC(=O)N(Cc1ccccc1F)[C@@H]1CCN(C2CCN(C(=O)c3c(Cl)cccc3Cl)CC2)C1 [Example 44]
Second: COCC(=O)N(Cc1ccccc1F)[C@@H]1CCN(C2CCN(C(=O)c3c(F)cccc3Cl)CC2)C1 [Example 50]
The IC50 of the first is 42-fold lower: 1.84 nM for the first, 77.7 nM for the second.

`Cc1cccc(C(=O)N2CCC(N3CC[C@@H](N(Cc4ccccc4)C(=O)CC4CC4)C3)CC2)c1Cl` [Example 46] and `O=C(c1c(F)cccc1Cl)N1CCC(N2CC[C@@H](N(Cc3ccccc3)C(=O)CC3CC3)C2)CC1` [Example 51] are within 1.5-fold of each other in IC50: 107 nM for the first, 100 nM for the second.

First: COCC(=O)N(Cc1ccccc1)[C@@H]1CCN(C2CCN(C(=O)c3ccccc3C(F)(F)F)CC2)C1 [Example 55]
Second: COCC(=O)N(Cc1ccccc1F)[C@@H]1CCN(C2(C)CCN(C(=O)c3ccc(F)cc3Cl)CC2)C1 [Example 66]
The IC50 of the first is 1.7-fold higher: 48.1 nM for the first, 28.5 nM for the second. The second is the more potent here.

Compared with `Cc1ccnc(C)c1C(=O)N1CCC(C)(N2CC[C@@H](N(Cc3ccccc3)C(=O)C3CC3)C2)CC1` [Example 62], `Cc1ncnc(C)c1C(=O)N1CCC(C)(N2CC[C@@H](N(Cc3ccccc3)C(=O)C3CC3)C2)CC1` [Example 63] is 24-fold higher in IC50: 0.34 nM for the first, 8.18 nM for the second.

Going from `COCC(=O)N(Cc1ccccc1F)[C@@H]1CCN(C2(C)CCN(C(=O)c3c(C)ncnc3C)CC2)C1` [Example 64] to `Cc1cc[n+]([O-])c(C)c1C(=O)N1CCC(C)(N2CC[C@@H](N(Cc3ccccc3)C(=O)C3CC3)C2)CC1` [Example 65], the IC50 rises from 16.6 nM to 26.5 nM (1.6-fold).

Same assay, conditions: HIV cell fusion assay; unit μm printed under the cell; read-out: IC50

First: O=C(c1ccccc1)N1CCC(N2CC[C@@H](N(Cc3ccccc3)C(=O)C3CC3)C2)CC1 [Example 56]
Second: COc1ccc(C(=O)N2CCC(N3CC[C@@H](N(Cc4ccccc4)C(=O)CC4CC4)C3)CC2)cc1C [Example 57]
The IC50 of the first is 3.3-fold lower: 1900 nM for the first, 6200 nM for the second. The first is the more potent here.

Same assay, conditions: Human immunodeficiency virus 1, HeLaP4

First: Cc1cccc(C)c1C(=O)N1CCC(N2CC[C@@H](N(Cc3cccc(Cl)c3)C(=O)C3CC3)C2)CC1 [Example 1, N-(3-chlorobenzyl)-N-{(3R)-1-[1-(2,6-dimethylbenzoyl)piperidin-4-yl]pyrrolidin-3-yl}cyclopropanecarboxamide]
Second: Cc1cccc(C)c1C(=O)N1CCC(C)(N2CC[C@@H](N(Cc3ccccc3)C(=O)C3CC3)C2)CC1 [Example 61, N-benzyl-N-{(3R)-1-[1-(2,6-dimethylbenzoyl)-4-methylpiperidin-4-yl]pyrrolidin-3-yl}cyclopropanecarboxamide]
The IC50 of the first is 1.6-fold lower: 0.14 nM for the first, 0.23 nM for the second. The first is the more potent here.

First: Cc1cccc(C)c1C(=O)N1CCC(N2CC[C@@H](N(Cc3ccccc3)S(C)(=O)=O)C2)CC1 [Example 58, N-benzyl-N-{(3R)-1-[1-(2,6-dimethylbenzoyl)piperidin-4-yl]pyrrolidin-3-yl}methanesulfonamide]
Second: CCCNC(=O)N(Cc1ccccc1F)[C@@H]1CCN(C2CCN(C(=O)c3c(C)cccc3C)CC2)C1 [Example 59, N-[(3R)-1-[1-(2,6-dimethylbenzoyl)piperidin-4-yl]pyrrolidin-3-yl]-N-(2-fluorobenzyl)-N′-propylurea]
The IC50 of the first is 4600-fold higher: 92.5 nM for the first, 0.02 nM for the second. The second is the more potent here.

In the case of `Cc1ccnc(C)c1C(=O)N1CCC(N2CC[C@@H](N(Cc3ccccc3)C(=O)C3CC3)C2)[C@H](C)C1` (stereo partly drawn) [Example 60, N-benzyl-N-((3R)-1-{1-[(2,4-dimethylpyridin-3-yl)carbonyl]-3-methylpiperidin-4-yl}pyrrolidin-3-yl)cyclopropanecarboxamide], the IC50 is reported as 4.46 nM.
